# Like-named read-outs stand apart in the source and are kept apart here.
# Tests used:
# [1] = biological target: GSK3α (GST-full length GSK3α) (Homo sapiens (Human), UniProt P49840); assay: GSK3α TR-FRET kinase assay; format: biochemical
# Procedure, shortened: (§1)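 In this time-resolved FRET format, kinase reactions contained 200 nM biotinylated, S645-phosphorylated glycogen synthase 631-650 peptide and either isoform-specific ATP (2 μM GSK3b, 4 μM GSK3α) or 1 mM ATP. They were quenched with EDTA after 100 min at ambient temperature. Inhibition curves gave IC50 values.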
# [2] = biological target: GSK3b (GST-full length GSK3b) (Homo sapiens (Human), UniProt P49841); assay: GSK3b TR-FRET kinase assay; format: biochemical
# GSK3b (GST-full length GSK3b), sequence (P49841 whole entry): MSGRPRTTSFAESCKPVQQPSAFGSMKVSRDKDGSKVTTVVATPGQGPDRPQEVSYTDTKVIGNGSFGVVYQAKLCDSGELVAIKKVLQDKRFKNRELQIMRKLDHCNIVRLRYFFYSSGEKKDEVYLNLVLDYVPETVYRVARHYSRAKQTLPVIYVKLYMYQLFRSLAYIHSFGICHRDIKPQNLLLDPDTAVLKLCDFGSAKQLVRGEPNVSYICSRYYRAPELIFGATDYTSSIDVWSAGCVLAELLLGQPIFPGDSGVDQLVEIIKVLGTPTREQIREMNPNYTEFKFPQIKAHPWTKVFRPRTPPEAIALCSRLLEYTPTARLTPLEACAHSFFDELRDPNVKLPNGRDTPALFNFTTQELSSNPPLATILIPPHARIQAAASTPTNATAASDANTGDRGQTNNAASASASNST
# Procedure, shortened: as §1
# [3] = 1 nM GSK3α, 4 μM ATP, 30 minute preincubation, geometric mean, read-out: GSK3-A TR-FRET BIOCHEMICAL (TR-FRET), GMean, IC50
# [4] = 1 nM GSK3b, 2 μM ATP, 30 minute preincubation, geometric mean, read-out: GSK3-B TR-FRET BIOCHEMICAL (TR-FRET), GMean, IC50
# [5] = read-out: GSK3-A (TR-FRET 1 mM ATP), GMean, IC50, 1 mM ATP, geometric mean
# [6] = read-out: GSK3-B (TR-FRET 1 mM ATP), GMean, IC50, 1 mM ATP, geometric mean
# [7] = 1 nM GSK3α, 4 μM ATP, 30 minute preincubation, Table 16, read-out: GSK3-A TR-FRET BIOCHEMICAL (TR-FRET), IC50
# [8] = 1 nM GSK3b, 2 μM ATP, 30 minute preincubation, Table 16, read-out: GSK3-B TR-FRET BIOCHEMICAL (TR-FRET), IC50
# [9] = 1 nM GSK3α, 4 μM ATP, 30 minute preincubation, Table 16, read-out: GSK3-A TR-FRET BIOCHEMICAL (TR-FRET)
# [10] = 1 nM GSK3b, 2 μM ATP, 30 minute preincubation, Table 16, read-out: GSK3-B TR-FRET BIOCHEMICAL (TR-FRET)
# GSK3α (GST-full length GSK3α), sequence (P49840 whole entry, canonical isoform): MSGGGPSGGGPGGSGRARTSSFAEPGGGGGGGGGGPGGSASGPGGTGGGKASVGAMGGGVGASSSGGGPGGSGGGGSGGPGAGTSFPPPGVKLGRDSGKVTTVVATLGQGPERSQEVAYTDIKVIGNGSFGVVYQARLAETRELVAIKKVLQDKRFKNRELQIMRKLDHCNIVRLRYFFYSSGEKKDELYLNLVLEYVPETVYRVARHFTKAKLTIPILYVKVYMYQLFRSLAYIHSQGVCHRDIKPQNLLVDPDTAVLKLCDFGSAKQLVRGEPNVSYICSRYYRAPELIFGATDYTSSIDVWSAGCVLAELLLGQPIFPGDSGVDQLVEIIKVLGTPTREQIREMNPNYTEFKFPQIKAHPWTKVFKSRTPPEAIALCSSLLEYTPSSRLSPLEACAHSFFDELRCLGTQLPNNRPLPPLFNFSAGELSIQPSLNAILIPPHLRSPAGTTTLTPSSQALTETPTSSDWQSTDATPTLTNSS
Compound,"IC50 [1, 7] [nM]","IC50 [2, 8] [nM]",other results
CC[C@]1(c2cccc(N(C)c3ncccn3)c2)C2=C(CC(C)(C)NC2=O)Nc2n[nH]cc21 [Compound 949179],,,"IC50 [1, 3]: 100 to 1000 nM; IC50 [2, 4]: > 5000 nM"
CCC1(c2cccc(N(C)c3ncccn3)c2)C2=C(CC(C)(C)NC2=O)Nc2n[nH]c(C(F)(F)F)c21 (centres unmarked) [Compound 949181],,,"IC50 [1, 5]: ≤ 100 nM; IC50 [2, 6]: 100 to 1000 nM"
CCC1(c2cccc(N(C)c3ncccn3)c2)C2=C(CC(C)(C)NC2=O)Nc2n[nH]c(C)c21 (centres unmarked) [Compound 949182],,,"IC50 [1, 3]: ≤ 100 nM; IC50 [2, 4]: ≤ 100 nM"
CCC1(c2cccc(N3CCCCC3)c2)C2=C(CC(C)(C)NC2=O)Nc2n[nH]c(C(F)(F)F)c21 (centres unmarked) [Compound 949183],,,"IC50 [1, 3]: ≤ 100 nM; IC50 [1, 5]: ≤ 100 nM; IC50 [2, 4]: ≤ 100 nM; IC50 [2, 6]: 100 to 1000 nM"
CC[C@@]1(c2cccc(S(=O)(=O)C3CC3)c2)C2=C(CC(C)(C)N(C)C2=O)Nc2n[nH]cc21 [Compound 949184],1000 to 5000,> 5000,
CC[C@@]1(c2cccc(-c3cn(C)nc3C)c2)C2=C(CC(C)(C)NC2=O)Nc2n[nH]c(F)c21 [Compound 949185],≤ 100,≤ 100,"IC50 [1, 5]: ≤ 100 nM; IC50 [2, 6]: 1000 to 5000 nM"
CC[C@@]1(c2cccc(S(=O)(=O)CC3CC3)c2)C2=C(CC(C)(C)NC2=O)Nc2n[nH]c(C(F)(F)F)c21 [Compound 949186],100 to 1000,100 to 1000,
CC[C@@]1(c2cccc(-c3cnn4ccncc34)c2)C2=C(CC(C)(C)NC2=O)Nc2n[nH]cc21 [Compound 949263],> 5000,> 5000,
CC[C@@]1(c2cccc(-c3cnn(-c4ccccn4)c3)c2)C2=C(CC(C)(C)NC2=O)Nc2n[nH]cc21 [Compound 949264],> 5000,> 5000,
CCC1(c2cccc(-c3cn(C)nc3C(F)(F)F)c2)C2=C(CC(C)(C)NC2=O)Nc2n[nH]cc21 (centres unmarked) [Compound 949266],≤ 100,100 to 1000,
CCC1(c2cccc(C(F)(F)C(F)(F)F)c2)C2=C(CC(C)(C)CC2=O)Nc2n[nH]cc21 (centres unmarked) [Compound 949268],,,"IC50 [1, 9]: 1000 to 5000 nM; IC50 [2, 10]: > 5000 nM"
CCC1(c2cccc(C(F)(F)F)c2)C2=C(CCN(c3cnn(C)c3)C2=O)Nc2n[nH]cc21 (centres unmarked) [Compound 949270],≤ 100,100 to 1000,
CC[C@]1(c2cccc(C(F)(F)F)c2)C2=C(CCN(c3cnn(C)c3)C2=O)Nc2n[nH]cc21 [Compound 949271],100 to 1000,> 5000,
CCC1(c2cccc(C(F)(F)F)c2)C2=C(CCN(c3ccccn3)C2=O)Nc2n[nH]cc21 (centres unmarked) [Compound 949310],≤ 100,100 to 1000,"IC50 [1, 5]: 100 to 1000 nM; IC50 [2, 6]: > 5000 nM"
Cc1cnccc1[C@H]1CC[C@@]2(CC1)C1=C(CC(C)(C)CC1=O)Nc1n[nH]cc12 [Compound 949318],,,"IC50 [1, 9]: 100 to 1000 nM; IC50 [2, 10]: 100 to 1000 nM"
Cc1cnccc1[C@H]1CC[C@]2(CC1)C1=C(CC(C)(C)CC1=O)Nc1n[nH]cc12 [Compound 949319],,,"IC50 [1, 9]: ≤ 100 nM; IC50 [2, 10]: ≤ 100 nM"
CC1(C)CC(=O)C2=C(C1)Nc1n[nH]cc1[C@]21CC[C@@H](c2ccncc2)CC1 [Compound 949320],,,"IC50 [1, 9]: 100 to 1000 nM; IC50 [2, 10]: 1000 to 5000 nM"
CC1(C)CC(=O)C2=C(C1)Nc1n[nH]cc1[C@]21CC[C@H](c2ccncc2)CC1 [Compound 949321],,,"IC50 [1, 9]: ≤ 100 nM; IC50 [2, 10]: ≤ 100 nM"
Cn1cc([C@H]2CC[C@@]3(CC2)C2=C(CC(C)(C)CC2=O)Nc2n[nH]cc23)cn1 [Compound 949322],,,"IC50 [1, 9]: 100 to 1000 nM; IC50 [2, 10]: 1000 to 5000 nM"
Cn1cc([C@H]2CC[C@]3(CC2)C2=C(CC(C)(C)CC2=O)Nc2n[nH]cc23)cn1 [Compound 949323],1000 to 5000,> 5000,
CCC1(c2cccc(-c3ccncc3F)c2)C2=C(CC(C)(C)NC2=O)Nc2n[nH]c(Cl)c21 (centres unmarked) [Compound 949324],≤ 100,≤ 100,"IC50 [1, 5]: 100 to 1000 nM; IC50 [2, 6]: 1000 to 5000 nM"
CC[C@]1(c2cccc(OC)c2)C2=C(CC(C)(C)NC2=O)Nc2n[nH]c(C)c21 [Compound 949328],1000 to 5000,> 5000,
CC[C@]1(c2cccc(-c3cn(C)nc3C)c2)C2=C(CC(C)(C)NC2=O)Nc2n[nH]c(Cl)c21 [Compound 949329],1000 to 5000,> 5000,
CC[C@]1(c2cccc(Oc3ncccn3)c2)C2=C(CC(C)(C)NC2=O)Nc2n[nH]cc21 [Compound 949330],≤ 100,100 to 1000,

# From patent US20250313563A1, “GLYCOGEN SYNTHASE KINASE 3 INHIBITORS AND USES THEREOF” (The Broad Institute, Inc., priority 2022, published 2025)
